Columns and labels:
Type in all cases: in vivo
Stellaria media (STEME) = assay: B. Herbicidal post-emergence efficacy, STEME
In short: (§1)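 Weeds grown in sandy loam in greenhouse and sprayed at the one-leaf stage, 2–3 weeks after sowing, with WP or EC formulations plus 0.5% additive at 600 L/ha water. Injury rated visually versus untreated controls after about 3 weeks (100% = dead, 0% = like control); rates up to 1280 g/ha.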

Veronica persica (VERPE) = assay: B. Herbicidal post-emergence efficacy, VERPE
In short: as §1

[1] = tested on: Amaranthus retroflexus (AMARE); assay: B. Herbicidal post-emergence efficacy, AMARE
In short: as §1

[2] = tested on: Abutilon theophrasti (ABUTH); assay: E. Herbicidal post-emergence efficacy, ABUTH; settings: application rate 320 g/ha
Experimental: (§2) Seeds of monocotyledonous and dicotyledonous weeds and crop plants were placed in sandy loam in plastic or organic planting pots, covered with soil and cultivated in a greenhouse under controlled growth conditions. 2 to 3 weeks after sowing, the test plants were treated at the one-leaf stage. The compounds of the invention, formulated in the form of wettable powders (WP) or as emulsion concentrates (EC), were then sprayed onto the green parts of the plants as aqueous suspension or emulsion with addition of 0.5% additive at a water application rate of 600 l/ha (converted). After the test plants had been kept in the greenhouse under optimum growth conditions for about 3 weeks, the activity of the preparations was rated visually in comparison to untreated controls.
(§3) For example, • 100% efficacy=plants have died, • 0% action=like untreated control plants.
(§4) Tables E1a to E12b below show the effects of selected compounds of the general formula (I) according to table 1 on various harmful plants at an application rate corresponding to 320 g/ha or less, which were obtained by the experimental procedure mentioned above.

[3] = tested on: Pharbitis purpurea (PHBPU); assay: E. Herbicidal post-emergence efficacy, PHBPU
Experimental: as §2, §3, §4

Viola tricolor (VIOTR) = assay: E. Herbicidal post-emergence efficacy, VIOTR
Experimental: as §2, §3, §4

[4] = tested on: Digitaria sanguinalis (DIGSA); assay: A. Herbicidal pre-emergence efficacy, DIGSA; settings: scored visually after about 3 weeks vs untreated controls
In short: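 Pre-emergence soil-surface spray in sandy loam pots, WP/EC in water plus 0.5% additive, 600 L/ha. Visual % damage rating after about 3 weeks in greenhouse vs. untreated; 0% = control-like, 100% = dead plants. Rates up to 1280 g/ha.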

Compound	Post-emergence efficacy against STEME (Stellaria media (STEME); 80 g/ha) [%]	Post-emergence efficacy against STEME (Stellaria media (STEME); 320 g/ha) [%]	Post-emergence efficacy against STEME (Stellaria media (STEME); 1280 g/ha) [%]	Post-emergence efficacy against VERPE (Veronica persica (VERPE); 1280 g/ha) [%]	Post-emergence efficacy against AMARE ([1]; 320 g/ha) [%]	Post-emergence efficacy against AMARE ([1]; 1280 g/ha) [%]	Post-emergence efficacy against ABUTH in % [2] [%]	Post-emergence efficacy against PHBPU in % ([3]; application rate 80 g/ha) [%]	Post-emergence efficacy against PHBPU in % ([3]; application rate 320 g/ha) [%]	Post-emergence efficacy against VIOTR in % (Viola tricolor (VIOTR); application rate 320 g/ha) [%]	Pre-emergence efficacy against DIGSA ([4]; 1280 g/ha) [%]	Post-emergence efficacy against VERPE (Veronica persica (VERPE); 80 g/ha) [%]	Post-emergence efficacy against VERPE (Veronica persica (VERPE); 320 g/ha) [%]	Pre-emergence efficacy against DIGSA ([4]; 320 g/ha) [%]	Post-emergence efficacy against AMARE ([1]; 80 g/ha) [%]	Pre-emergence efficacy against DIGSA ([4]; 80 g/ha) [%]	Post-emergence efficacy against VIOTR in % (Viola tricolor (VIOTR); application rate 80 g/ha) [%]
Cc1cccc(OS(=O)(=O)CCCCl)c1Oc1ncc(Cl)cn1 [Example I-12]	90	90	100	90	90	100	90	90	90	80							
O=S(=O)(CCCCl)Oc1cccc(F)c1Oc1ncc(Cl)cn1 [Example I-13]		90	100	100	90	100					100	90	100				
CCS(=O)(=O)Oc1ccccc1Oc1ncc(Cl)cn1 [Example I-16]	90	100	100	100	100	100					100	100	100	100	100		
CCCCCS(=O)(=O)Oc1ccccc1Oc1ncc(Cl)cn1 [Example I-24]	90	90	100	100	100	100	90		80	80	100	90	100	100	90		
Cc1cccc(Oc2ncc(Cl)cn2)c1OS(=O)(=O)CCCC(F)(F)F [Example I-28, 2-[(5-Chloropyrimidin-2-yl)oxy]-6-methylphenyl 4,4,4-trifluorobutane-1-sulfonate]	90	100	100	100	90	100					100	100	100	100		90	
Cc1cccc(Oc2ncc(Cl)cn2)c1OS(=O)(=O)CCC(F)(F)F [Example I-29]	90	100	100	100	100	100					100	90	90	100	90	90	
O=S(=O)(CCCC(F)(F)F)Oc1c(Br)cccc1Oc1ncc(Cl)cn1 [Example I-30]	100	100	100	100	100	100					100	90	100	100	100		
O=S(=O)(CCC(F)(F)F)Oc1c(Br)cccc1Oc1ncc(Cl)cn1 [Example I-31]	100	100	100	100	100	100					100	90	90	90	100		
C=CCS(=O)(=O)Oc1ccccc1Oc1ncc(Cl)cn1 [Example I-36]			100	100	90	100					100		90	90			
O=S(=O)(CCC(F)(F)F)Oc1c(Br)cccc1Oc1ncc(F)cn1 [Example I-43]		100	100					80	90	100	100			100			90
O=S(=O)(CCC1CC1)Oc1c(F)cccc1Oc1ncc(Cl)cn1 [Example I-55]	90	90	90	90	90	90	100	90	100	80	100	90	90	100	90	100	
O=S(=O)(CC1CC1(Cl)Cl)Oc1c(F)cccc1Oc1ncc(Cl)cn1 (stereo not drawn) [Example I-57]	90	90	90	90	90	90					100	90		100	90	90	
O=S(=O)(CCC(F)=C(F)F)Oc1c(Cl)cccc1Oc1ncc(Cl)cn1 [Example I-73]	90	100	100	100	100	100	80			100	100	100	100	90	100		90
Cc1cccc(Oc2ncc(Cl)cn2)c1OS(=O)(=O)CC1CC(F)(F)C1 [Example I-74]	100	100	100	100	100	100	90		90	100	100	100	100	100	100		100

— patent US20240174618A1, “SUBSTITUTED (2-HETEROARYLOXYPHENYL)SULFONATES, SALTS THEREOF AND THEIR USE AS HERBICIDAL AGENTS” (Bayer Aktiengesellschaft, priority 2021, published 2024)
